Results: patent US10611747B2, “Pyrone based compounds for treating bacterial infections” (FORGE THERAPEUTICS, INC., priority 2015, dated 2020)
pIC50: −log10 of the molar value. Converted amounts (≈) assume the structure as drawn. Where two headings read alike, the source gives them in different places.

How the values were obtained:
LpxC = LpxC (Klebsiella pneumoniae subsp. pneumoniae, UniProt A6T4N9); experiment: Inhibition assay against Klebsiella pneumonae LpxC (LC-MS/MS); format: biochemical; conditions: LpxC 0.2 nM Kpn, 22° C., 60 minutes
Experimental: LpxC inhibition assays were performed using liquid chromatography with tandem mass spectrometry. Assays were performed, in duplicate, in opaque, 96-well microplates in a total assay volume of 50 μL. The incubation mixture contained: LpxC (0.2 nM Kpn), 0.8 μM UDP-3-O—[(R)-3-hydroxymyristoyl]-N-acetyl-glucosamine, 40 mM Bis-Tris/HCI buffer (pH 5.9), 5 mM sodium phosphate buffer (NaH2PO4/Na2HPO4, pH 7.0), 1 mM DTT, 0.1% (w/v) fatty-acid free BSA, 10% DMSO (v/v, with or without compound). The reactions were incubated at 22° C. for 60 minutes (with mild shaking), then terminated by the addition of 25 μL 0.25 N HCl. Samples were analyzed using a LC-MS system to measure native LpxC substrate and reaction product. IC50 analysis was done using GeneData Screener and a four parameter variable slope normalized to controls. Test compounds were prepared as 8-point dose-response curves (factor dilution 2) in triplicate, starting at 1 μM final concentration. Each assay plate included 6 wells used for the Z′ factor calculation, 3 as a positive control for the assay and 3 as a negative control. The robustness was calculated as the median Z′ factor for 5 plates.

E. coli ATCC 25922 = experiment: Bacterial susceptibility testing (MIC, broth microdilution); format: cell-based; conditions: Escherichia coli
Experimental: (§1) Minimal inhibitory concentrations (MIC) were determined by the broth microdilution method in accordance with the Clinical and Laboratory Standards Institute (CLSI) guidelines. In brief, organism suspensions were adjusted to a 0.5 McFarland standard to yield a final inoculum between 3×10^5 and 7×10^5 colony-forming units (CFU)/mL. Drug dilutions and inocula were made in sterile, cation adjusted Mueller-Hinton Broth (Beckton Dickinson). An inoculum volume of 100 μL was added to wells containing 100 μL of broth with 2-fold serial dilutions of drug. All inoculated microdilution trays were incubated in ambient air at 35° C. for 18-24 h. […] Performance of the assay was monitored by the use of laboratory quality-control strains and levofloxacin, a compound with a defined MIC spectrum, in accordance with CLSI guidelines.

S. aureus ATCC 29213 = experiment: as above; format: cell-based; conditions: Staphylococcus aureus
Experimental: as §1

E. coli imp mutant = experiment: as above; format: cell-based; conditions: Escherichia coli, read-out: MIC E. coli imp mutant
Experimental: as §1

E. coli delta tolC = experiment: as above; format: cell-based; conditions: Escherichia coli, 24 h, read-out: MIC E. coli delta tolC
Experimental: as §1

[1] = tested on: P. aeruginosa 210 delta mexAB-OprM; experiment: as above; format: cell-based; conditions: Pseudomonas aeruginosa, read-out: MIC P. aeruginosa 210 delta mexAB-OprM
Experimental: as §1

P. aeruginosa 209 = experiment: as above; format: cell-based; conditions: Pseudomonas aeruginosa, 209; broth microdilution, 35° C., 18-24 h; read-out: MIC P. aeruginosa 209
Experimental: as §1

E. coli BW25113 = experiment: as above; format: cell-based; conditions: Escherichia coli, no FBS, 35° C., 18-24 h
Experimental: as §1

[2] = ATCC25922, no FBS, broth microdilution, 35° C., 18-24 h, read-out: MIC E. coli ATCC 25922-no FBS
[3] = ATCC29213, broth microdilution, 35° C., 18-24 h, read-out: MIC S. aureus ATCC 29213

LpxC, sequence (A6T4N9 whole entry): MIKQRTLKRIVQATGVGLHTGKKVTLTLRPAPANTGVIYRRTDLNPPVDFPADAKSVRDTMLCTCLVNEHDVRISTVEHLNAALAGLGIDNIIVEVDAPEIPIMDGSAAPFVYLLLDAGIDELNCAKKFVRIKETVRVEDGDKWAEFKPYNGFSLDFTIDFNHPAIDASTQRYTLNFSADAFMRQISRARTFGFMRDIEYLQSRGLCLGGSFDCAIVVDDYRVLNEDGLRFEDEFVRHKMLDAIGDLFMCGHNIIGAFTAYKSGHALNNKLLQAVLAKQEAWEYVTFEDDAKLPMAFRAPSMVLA

SMILES | pIC50 (LpxC) | MIC (E. coli ATCC 25922; ATCC25922, read-out: MIC E. coli ATCC 25922-no FBS) [µg/mL] | MIC (S. aureus ATCC 29213; ATCC29213, read-out: MIC S. aureus ATCC 29213) [µg/mL] | MIC (E. coli imp mutant) [µg/mL] | MIC (E. coli delta tolC) [µg/mL] | MIC [1] [µg/mL] | MIC (E. coli ATCC 25922; [2]) [µg/mL] | MIC (P. aeruginosa 209) [µg/mL] | MIC (S. aureus ATCC 29213; [3]) [µg/mL] | MIC (E. coli BW25113) [µg/mL]
CNC(=O)c1ccc(C#CC#Cc2ccc(NCc3oc(CS(C)(=O)=O)cc(=O)c3O)cc2)cc1 [Compound 4, 4-((4-(((3-hydroxy-6-((methylsulfonyl)methyl)-4-oxo-4H-pyran-2-yl)methyl)amino)phenyl)buta-1,3-diyn-1-yl)-N-methylbenzamide] | < 7.00 | 1 to 8 (≈ 2.04 to 16.3 µM) | > 32 | 8 to 32 (≈ 16.3 to 65.2 µM) | < 1 | – | – | – | – | –
O=c1ccoc(CNc2ccc(C#CC#Cc3ccccc3)cc2)c1O [Compound 28] | < 7.00 | – | – | 1 to 8 (≈ 2.93 to 23.4 µM) | 1 to 8 (≈ 2.93 to 23.4 µM) | > 32 | 1 to 8 (≈ 2.93 to 23.4 µM) | > 32 | > 32 | 1 to 8 (≈ 2.93 to 23.4 µM)
O=C(c1ccc(C#CC#Cc2ccc(NCc3occc(=O)c3O)cc2)cc1)N1CCOCC1 [Compound 32] | 7.00 to 8.00 | – | – | 1 to 8 (≈ 2.2 to 17.6 µM) | < 1 | > 32 | 1 to 8 (≈ 2.2 to 17.6 µM) | > 32 | > 32 | 1 to 8 (≈ 2.2 to 17.6 µM)
CNC(=O)c1ccc(C#CC#Cc2ccc(NCc3occc(=O)c3O)cc2)cc1 [Compound 35] | < 7.00 | – | – | 1 to 8 (≈ 2.51 to 20.1 µM) | < 1 | > 32 | 1 to 8 (≈ 2.51 to 20.1 µM) | > 32 | > 32 | 1 to 8 (≈ 2.51 to 20.1 µM)
O=C(O)c1ccc(C#CC#Cc2ccc(NCc3occc(=O)c3O)cc2)cc1 [Compound 38] | < 7.00 | – | – | < 1 | < 1 | 8 to 32 (≈ 20.8 to 83 µM) | 1 to 8 (≈ 2.59 to 20.8 µM) | > 32 | > 32 | < 1
O=C(c1ccc(C#CC#Cc2ccc(NCc3occc(=O)c3O)cc2)cc1)N1CC(O)C1 [Compound 39] | 7.00 to 8.00 | – | – | 1 to 8 (≈ 2.27 to 18.2 µM) | < 1 | 8 to 32 (≈ 18.2 to 72.7 µM) | 1 to 8 (≈ 2.27 to 18.2 µM) | > 32 | > 32 | 1 to 8 (≈ 2.27 to 18.2 µM)
CN1CCN(C(=O)c2ccc(C#CC#Cc3ccc(NCc4occc(=O)c4O)cc3)cc2)CC1 [Compound 40] | 7.00 to 8.00 | – | – | < 1 | < 1 | 8 to 32 (≈ 17.1 to 68.4 µM) | 1 to 8 (≈ 2.14 to 17.1 µM) | > 32 | > 32 | 1 to 8 (≈ 2.14 to 17.1 µM)
O=C(c1ccc(C#CC#Cc2ccc(NCc3occc(=O)c3O)cc2)cc1)N1CCC(O)C1 (stereo not shown) [Compound 45] | – | – | – | < 1 | < 1 | 8 to 32 (≈ 17.6 to 70.4 µM) | 1 to 8 (≈ 2.2 to 17.6 µM) | > 32 | > 32 | 1 to 8 (≈ 2.2 to 17.6 µM)
O=C(NCCN1CCOCC1)c1ccc(C#CC#Cc2ccc(NCc3occc(=O)c3O)cc2)cc1 [Compound 46] | – | – | – | 1 to 8 (≈ 2.01 to 16.1 µM) | < 1 | > 32 | 8 to 32 (≈ 16.1 to 64.3 µM) | > 32 | > 32 | 1 to 8 (≈ 2.01 to 16.1 µM)
O=c1ccoc(CNc2ccc(C#CC#Cc3ccc(CN4CCOCC4)cc3)cc2)c1O [Compound 47] | 7.00 to 8.00 | – | – | 1 to 8 (≈ 2.27 to 18.2 µM) | 1 to 8 (≈ 2.27 to 18.2 µM) | > 32 | 8 to 32 (≈ 18.2 to 72.6 µM) | > 32 | > 32 | 1 to 8 (≈ 2.27 to 18.2 µM)
O=C(c1ccc(C#CC#Cc2ccc(NCc3occc(=O)c3O)cc2)cc1)N1CCNCC1 [Compound 48] | – | – | – | 1 to 8 (≈ 2.21 to 17.6 µM) | < 1 | 8 to 32 (≈ 17.6 to 70.6 µM) | 1 to 8 (≈ 2.21 to 17.6 µM) | > 32 | > 32 | 1 to 8 (≈ 2.21 to 17.6 µM)
N[C@@H]1CN(C(=O)c2ccc(C#CC#Cc3ccc(NCc4occc(=O)c4O)cc3)cc2)CC12CC2 [Compound 49] | – | – | – | 1 to 8 (≈ 2.09 to 16.7 µM) | < 1 | > 32 | 1 to 8 (≈ 2.09 to 16.7 µM) | > 32 | > 32 | 1 to 8 (≈ 2.09 to 16.7 µM)
COC1CN(C(=O)c2ccc(C#CC#Cc3ccc(NCc4occc(=O)c4O)cc3)cc2)C1 [Compound 51] | – | – | – | 1 to 8 (≈ 2.2 to 17.6 µM) | < 1 | > 32 | 1 to 8 (≈ 2.2 to 17.6 µM) | > 32 | > 32 | 1 to 8 (≈ 2.2 to 17.6 µM)
N#Cc1ccc(C#Cc2ccc(NCc3occc(=O)c3O)cc2)cc1 [Compound 52] | – | – | – | > 32 | > 32 | > 32 | > 32 | > 32 | > 32 | > 32
O=C(O)c1ccc(C#Cc2ccc(NCc3occc(=O)c3O)cc2)cc1 [Compound 53] | – | – | – | > 32 | 1 to 8 (≈ 2.77 to 22.1 µM) | > 32 | > 32 | > 32 | > 32 | > 32
O=C(c1ccc(C#Cc2ccc(NCc3occc(=O)c3O)cc2)cc1)N1CC(O)C1 [Compound 54] | – | – | – | > 32 | 8 to 32 (≈ 19.2 to 76.8 µM) | > 32 | > 32 | > 32 | > 32 | > 32
O=c1ccoc(CNc2ccc(C#Cc3ccc(CN4CCOCC4)cc3)cc2)c1O [Compound 55] | – | – | – | 1 to 8 (≈ 2.4 to 19.2 µM) | 1 to 8 (≈ 2.4 to 19.2 µM) | 8 to 32 (≈ 19.2 to 76.8 µM) | 1 to 8 (≈ 2.4 to 19.2 µM) | > 32 | > 32 | 1 to 8 (≈ 2.4 to 19.2 µM)
